How the values were obtained:
human TLR7 = biological target: T1, human TLR7 (Homo sapiens, UniProt Q9NYK1); assay: TLR7 inhibition reporter assay (HEK-Blue cells, SEAP reporter, gardiquimod stimulation); format: cell-based; details: HEK-Blue cells overexpressing human TLR7, gardiquimod 7.5 μM
T1 construct: host or cells: HEK-Blue cells
T1 sequence (Q9NYK1 27-1049): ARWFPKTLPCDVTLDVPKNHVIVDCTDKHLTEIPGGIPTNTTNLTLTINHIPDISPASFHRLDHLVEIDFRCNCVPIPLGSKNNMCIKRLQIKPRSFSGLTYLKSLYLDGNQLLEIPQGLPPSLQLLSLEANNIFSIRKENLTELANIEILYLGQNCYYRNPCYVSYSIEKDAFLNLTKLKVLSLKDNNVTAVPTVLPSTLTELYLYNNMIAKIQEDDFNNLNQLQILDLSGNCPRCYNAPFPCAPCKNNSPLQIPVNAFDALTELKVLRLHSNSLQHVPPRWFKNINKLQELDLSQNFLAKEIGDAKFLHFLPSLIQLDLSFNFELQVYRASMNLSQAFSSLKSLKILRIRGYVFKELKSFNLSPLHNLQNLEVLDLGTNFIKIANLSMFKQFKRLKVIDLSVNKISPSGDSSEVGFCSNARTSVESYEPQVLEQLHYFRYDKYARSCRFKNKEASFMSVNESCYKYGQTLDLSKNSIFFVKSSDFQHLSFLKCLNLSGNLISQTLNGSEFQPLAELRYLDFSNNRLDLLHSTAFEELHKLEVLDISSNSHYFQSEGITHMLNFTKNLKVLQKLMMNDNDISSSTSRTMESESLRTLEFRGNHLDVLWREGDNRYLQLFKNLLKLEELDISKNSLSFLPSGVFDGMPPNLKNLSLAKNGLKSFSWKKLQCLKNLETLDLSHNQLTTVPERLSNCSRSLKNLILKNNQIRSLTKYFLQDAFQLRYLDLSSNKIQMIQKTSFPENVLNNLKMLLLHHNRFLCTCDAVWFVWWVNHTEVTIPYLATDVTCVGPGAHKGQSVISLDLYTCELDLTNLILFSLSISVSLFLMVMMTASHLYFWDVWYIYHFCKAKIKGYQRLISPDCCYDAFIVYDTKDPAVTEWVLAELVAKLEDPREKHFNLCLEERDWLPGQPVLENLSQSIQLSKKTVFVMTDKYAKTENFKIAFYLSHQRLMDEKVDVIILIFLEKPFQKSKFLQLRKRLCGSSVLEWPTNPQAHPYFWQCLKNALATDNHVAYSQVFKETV
Summary of the method: (§1)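 22 h, 37° C, 5% CO2 incubation; compounds 0.05 nM-50 μM final; TLR7 cells 15000/well, TLR8 20,000/well. Readout: SEAP via HEK-Blue Detection medium. % inhibition = signal reduction versus agonist + DMSO wells, referenced to known inhibitor.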

human TLR8 = biological target: T2, human TLR8 (Homo sapiens, UniProt Q9NR97); assay: TLR8 inhibition reporter assay (HEK-Blue cells, SEAP reporter, R848 stimulation); format: cell-based; details: HEK-Blue cells overexpressing human TLR8, R848 15.9 μM
T2 construct: host or cells: HEK-Blue cells
T2 sequence (Q9NR97 27-1041): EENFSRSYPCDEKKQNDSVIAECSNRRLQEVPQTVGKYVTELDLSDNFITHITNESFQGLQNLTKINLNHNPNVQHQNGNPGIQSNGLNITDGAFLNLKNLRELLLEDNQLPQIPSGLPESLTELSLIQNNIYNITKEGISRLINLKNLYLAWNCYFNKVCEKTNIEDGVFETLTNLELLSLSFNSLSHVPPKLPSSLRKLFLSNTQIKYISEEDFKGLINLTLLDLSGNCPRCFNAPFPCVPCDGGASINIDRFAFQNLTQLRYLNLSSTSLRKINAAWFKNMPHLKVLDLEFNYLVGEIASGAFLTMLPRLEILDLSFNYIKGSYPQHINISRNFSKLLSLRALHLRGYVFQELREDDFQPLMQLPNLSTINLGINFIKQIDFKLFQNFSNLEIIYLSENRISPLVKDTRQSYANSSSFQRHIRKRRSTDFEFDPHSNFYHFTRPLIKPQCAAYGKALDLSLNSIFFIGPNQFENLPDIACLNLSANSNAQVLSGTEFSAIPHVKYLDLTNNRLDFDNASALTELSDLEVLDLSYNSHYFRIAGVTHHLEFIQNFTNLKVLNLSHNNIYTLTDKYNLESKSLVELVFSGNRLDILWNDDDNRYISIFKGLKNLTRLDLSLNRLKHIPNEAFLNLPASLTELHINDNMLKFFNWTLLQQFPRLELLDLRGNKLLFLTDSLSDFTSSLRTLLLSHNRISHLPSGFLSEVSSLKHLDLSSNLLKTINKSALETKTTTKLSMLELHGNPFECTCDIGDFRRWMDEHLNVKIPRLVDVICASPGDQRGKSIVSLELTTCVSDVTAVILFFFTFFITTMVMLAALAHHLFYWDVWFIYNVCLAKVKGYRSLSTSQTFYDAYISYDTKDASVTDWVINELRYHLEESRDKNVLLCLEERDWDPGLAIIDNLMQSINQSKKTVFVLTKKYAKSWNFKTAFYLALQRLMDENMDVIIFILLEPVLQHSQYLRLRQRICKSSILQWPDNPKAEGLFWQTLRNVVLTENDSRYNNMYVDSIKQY
Summary of the method: as §1

SMILES	IC50 (human TLR7)	IC50 (human TLR8)
COc1ccc(-c2[nH]c3ccc(C4CCN(CC5CCCCN5C)CC4)cc3c2C)cc1OC (stereo not drawn) [Example 49, 2-(3,4-dimethoxyphenyl)-3-methyl-5-(1-((1-methylpiperidin-2-yl)methyl)piperidin-4-yl)-1H-indole]	1360 nM	260 nM
COc1ccc(-c2[nH]c3ccc(C4CCN(C5CCCN(CC6CC6)CC5)CC4)cc3c2C)cc1OC (stereo not drawn) [Example 94, 5-(1-(1-(cyclopropylmethyl)azepan-4-yl)piperidin-4-yl)-2-(3,4-dimethoxyphenyl)-3-methyl-1H-indole]	1770 nM	281 nM
COc1ccc(-c2[nH]c3ccc(C4CCN(C5CCN(CC(C)(C)C)CC5)CC4)cc3c2C)cc1OC [Example 75, 2-(3,4-dimethoxyphenyl)-3-methyl-5-(1′-neopentyl-[1,4′-bipiperidin]-4-yl)-1H-indole]	734 nM	325 nM
CCN(CC)C(=O)C1CCCN(CC(=O)N2CCC(c3ccc4[nH]c(-c5ccc(OC)c(OC)c5)c(CC(F)(F)F)c4c3)CC2)C1 (stereo not drawn) [Example 421, 1-(2-(4-(2-(3,4-dimethoxyphenyl)-3-(2,2,2-trifluoroethyl)-1H-indol-5-yl)piperidin-1-yl)-2-oxoethyl)-N,N-diethylpiperidine-3-carboxamide]	114 nM	71 nM
COc1ccc(-c2[nH]c3ccc(C4CCN(C5CCN(C6CCCC6)CC5)CC4)cc3c2C)cc1OC [Example 62, 5-(1′-cyclopentyl-[1,4′-bipiperidin]-4-yl)-2-(3,4-dimethoxyphenyl)-3-methyl-1H-indole]	225 nM	217 nM
CCN(CC)C(=O)C1CCCN(CC(=O)N2CCC(c3ccc4[nH]c(-c5ccc(OC)c(OC)c5)c(CC(F)(F)F)c4c3)CC2)C1 (stereo not drawn) [Example 418, 1-(2-(4-(2-(3,4-dimethoxyphenyl)-3-(2,2,2-trifluoroethyl)-1H-indol-5-yl)piperidin-1-yl)-2-oxoethyl)-N,N-diethylpiperidine-3-carboxamide]	79 nM	77 nM
COc1ccc(-c2[nH]c3ccc(C4CCN(C5CCN(CC6CCOC6)CC5)CC4)cc3c2C)cc1OC (stereo not drawn) [Example 74]	1080 nM	102 nM
COc1ccc(-c2[nH]c3ccc(C4CCN(C5CCN(Cc6nccs6)CC5)CC4)cc3c2C)cc1OC [Example 72, 2-((4-(2-(3,4-dimethoxyphenyl)-3-methyl-1H-indol-5-yl)-[1,4′-bipiperidin]-1′-yl)methyl)thiazole]	563 nM	312 nM
CCN1CCCC(N2CCC(c3ccc4[nH]c(-c5ccc(OC)c(OC)c5)c(C)c4c3)CC2)CC1 (stereo not drawn) [Example 97, 2-(3,4-dimethoxyphenyl)-5-(1-(1-ethylazepan-4-yl)piperidin-4-yl)-3-methyl-1H-indole]	931 nM	196 nM
COc1ccc(-c2[nH]c3ccc(C4CCN(C5CCN(CC(C)(C)CO)CC5)CC4)cc3c2C)cc1OC [Example 69, 3-(4-(2-(3,4-dimethoxyphenyl)-3-methyl-1H-indol-5-yl)-[1,4′-bipiperidin]-1′-yl)-2,2-dimethylpropan-1-ol]	238 nM	317 nM
COc1ccc(-c2[nH]c3ccc(C4CCN(C5CCN(Cc6ccco6)CC5)CC4)cc3c2C)cc1OC [Example 76, 2-(3,4-dimethoxyphenyl)-5-(1′-(furan-2-ylmethyl)-[1,4′-bipiperidin]-4-yl)-3-methyl-1H-indole]	147 nM	238 nM
COc1ccc(-c2[nH]c3ccc(C4CCN(C5CCN(Cc6cncn6C)CC5)CC4)cc3c2C)cc1OC [Example 59, 2-(3,4-dimethoxyphenyl)-3-methyl-5-(1′-((1-methyl-1H-imidazol-5-yl)methyl)-[1,4′-bipiperidin]-4-yl)-1H-indole]	477 nM	187 nM
COc1ccc(-c2[nH]c3ccc(C4CCN(C(=O)CNCCC(C)O)CC4)cc3c2C)cc1OC (stereo not drawn) [Example 406, 1-(4-(2-(3,4-dimethoxyphenyl)-3-methyl-1H-indol-5-yl)piperidin-1-yl)-2-((3-hydroxybutyl)amino)ethan-1-one]	1180 nM	2050 nM
CNCC(=O)N1CCC(c2ccc3[nH]c(-c4ccc(OC)c(OC)c4)c(CC(F)(F)F)c3c2)CC1 [Example 414, 1-(4-(2-(3,4-dimethoxyphenyl)-3-(2,2,2-trifluoroethyl)-1H-indol-5-yl)piperidin-1-yl)-2-(methylamino)ethanone]	58 nM	86 nM
COc1ccc(-c2[nH]c3ccc(C4CCN(C5CCN(Cc6cccs6)CC5)CC4)cc3c2C)cc1OC [Example 64, 2-(3,4-dimethoxyphenyl)-3-methyl-5-(1′-(thiophen-2-ylmethyl)-[1,4′-bipiperidin]-4-yl)-1H-indole]	163 nM	195 nM
COc1ccc(-c2[nH]c3ccc(C4CCN(C5CCN(C6CCC(O)CC6)CC5)CC4)cc3c2C)cc1OC (stereo not drawn) [Example 84, 4-(4-(2-(3,4-dimethoxyphenyl)-3-methyl-1H-indol-5-yl)-[1,4′-bipiperidin]-1′-yl)cyclohexan-1-ol]	490 nM	143 nM
COc1ccc(-c2[nH]c3ccc(C4CCN(C5CC(C)(C)NC(C)(C)C5)CC4)cc3c2C)cc1OC [Example 48, 2-(3,4-dimethoxyphenyl)-3-methyl-5-(2′,2′,6′,6′-tetramethyl-[1,4′-bipiperidin]-4-yl)-1H-indole]	560 nM	616 nM
CCN1CCC(N2CCC(c3ccc4[nH]c(-c5ccc(OC)c(OC)c5)c(C)c4c3)CC2)CC1 [Example 44, 2-(3,4-dimethoxyphenyl)-5-(1′-ethyl-[1,4′-bipiperidin]-4-yl)-3-methyl-1H-indole]	468 nM	926 nM
COc1ccc(-c2[nH]c3ccc(C4CCN(C5CCN(CC6CCCCC6)CC5)CC4)cc3c2C)cc1OC [Example 58, 5-(1′-(cyclohexylmethyl)-[1,4′-bipiperidin]-4-yl)-2-(3,4-dimethoxyphenyl)-3-methyl-1H-indole]	266 nM	258 nM
CNCCN1CCC(c2ccc3[nH]c(-c4ccc(OC)c(OC)c4)c(CC(F)(F)F)c3c2)CC1 [Example 413, 2-(4-(2-(3,4-dimethoxyphenyl)-3-(2,2,2-trifluoroethyl)-1H-indol-5-yl)piperidin-1-yl)-N-methylethanamine]	83 nM	28 nM
COc1ccc(-c2[nH]c3ccc(C4CCN(C(=O)CN5CCN(C)CC5)CC4)cc3c2C)cc1OC [Example 409, 1-(4-(2-(3,4-dimethoxyphenyl)-3-methyl-1H-indol-5-yl)piperidin-1-yl)-2-(4-methylpiperazin-1-yl)ethan-1-one]	1010 nM	11200 nM

Reference: patent US11180474B2 (BRISTOL-MYERS SQUIBB COMPANY, priority 2016, dated 2021)
